Assay results taken from PubChem BioAssay AID212 (DTP/NCI, 2004).
Values joined by “and” are separate entries in the source; they are usually repeats but may differ in a detail not shown here. Equal entries are not always repeated. Results filed as inconclusive are left out.

Tested on: BDF1 mice, colon carcinoma 38 sc, T/C %
Assay: NCI In Vivo Anticancer Drug Screen. Data for tumor model Colon Carcinoma 38 (subcutaneous) in B6D2F1 (BDF1) mice
Details: endpoint: median tumor weight (est.), higher = larger tumour
In short: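 Ratio of survival or tumor size, compound-treated animals relative to vehicle controls, in tumor-bearing mice.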

[1] = dose: 50.0 mg/kg/injection, schedule: Q07DX002 (ip), vehicle: saline with Tween-80
[2] = dose: 100.0 mg/kg/injection, schedule: Q07DX002 (ip), vehicle: saline with Tween-80
[3] = dose: 200.0 mg/kg/injection, schedule: Q07DX002 (ip), vehicle: saline with Tween-80
[4] = dose: 400.0 mg/kg/injection, schedule: Q07DX002 (ip), vehicle: saline with Tween-80
[5] = dose: 25.0 mg/kg/injection, schedule: Q07DX002 (ip), vehicle: Klucel (hydroxypropylcellulose) (HPC)
[6] = dose: 50.0 mg/kg/injection, schedule: Q07DX002 (ip), vehicle: Klucel (hydroxypropylcellulose) (HPC)
[7] = dose: 100.0 mg/kg/injection, schedule: Q07DX002 (ip), vehicle: Klucel (hydroxypropylcellulose) (HPC)
[8] = dose: 200.0 mg/kg/injection, schedule: Q07DX002 (ip), vehicle: Klucel (hydroxypropylcellulose) (HPC)
[9] = dose: 400.0 mg/kg/injection, schedule: Q07DX002 (ip), vehicle: Klucel (hydroxypropylcellulose) (HPC)
[10] = dose: 100.0 mg/kg/injection, schedule: Q07DX002 (ip), vehicle: saline
[11] = dose: 6.25 mg/kg/injection, schedule: Q07DX002 (ip), vehicle: saline
[12] = dose: 12.5 mg/kg/injection, schedule: Q07DX002 (ip), vehicle: saline
[13] = dose: 6.25 mg/kg/injection, schedule: Q07DX002 (ip), vehicle: suspension in saline
[14] = dose: 12.5 mg/kg/injection, schedule: Q07DX002 (ip), vehicle: Klucel (hydroxypropylcellulose) (HPC)
[15] = dose: 12.5 mg/kg/injection, schedule: Q07DX002 (ip), vehicle: saline with Tween-80

Nc1ccc2nc3c4ccccc4c(O)n3nc2c1
T/C [1]: 83 % of control
T/C [2]: 101 % of control
T/C [3]: 94 % of control
T/C [4]: 98 % of control

NC(=O)c1cn(C2OC(CO)C(O)C2O)c2ncnc(N)c12 (stereo not given)
T/C (dose: 0.5 mg/kg/injection, schedule: Q07DX002 (ip), vehicle: suspension in saline): 55 % of control
T/C (dose: 1.0 mg/kg/injection, schedule: Q07DX002 (ip), vehicle: suspension in saline): 84 % of control
T/C (dose: 2.0 mg/kg/injection, schedule: Q07DX002 (ip), vehicle: saline with Tween-80): 73 % of control
T/C (dose: 2.0 mg/kg/injection, schedule: Q07DX002 (ip), vehicle: suspension in saline): 56 % of control and 62 % of control
T/C (dose: 4.0 mg/kg/injection, schedule: Q07DX002 (ip), vehicle: saline with Tween-80): 79 % of control
T/C (dose: 4.0 mg/kg/injection, schedule: Q07DX002 (ip), vehicle: suspension in saline): 48 % of control and 73 % of control
T/C (dose: 8.0 mg/kg/injection, schedule: Q07DX002 (ip), vehicle: suspension in saline): 38 % of control

CC(C)CCC[C@@H](C)[C@H]1CC[C@H]2[C@@H]3CC=C4C[C@@H](OC(=O)Cc5ccc(N(CCCl)CCCl)cc5)CC[C@]4(C)[C@H]3CC[C@]12C
T/C [5]: 85 % of control
T/C [6]: 111 % of control
T/C [7]: 103 % of control
T/C [8]: 103 % of control
T/C [9]: 77 % of control
T/C (dose: 800.0 mg/kg/injection, schedule: Q07DX002 (ip), vehicle: Klucel (hydroxypropylcellulose) (HPC)): 82 % of control

Nc1ccn(C2OC(CO)C(O)C2O)c(=O)n1 (stereo not given)
T/C [10]: 69 % of control
T/C (dose: 150.0 mg/kg/injection, schedule: Q07DX002 (ip), vehicle: saline): 74 % of control
T/C (dose: 400.0 mg/kg/injection, schedule: Q07DX002 (ip), vehicle: saline): 75 % of control and 95 % of control
T/C (dose: 600.0 mg/kg/injection, schedule: Q07DX002 (ip), vehicle: saline): 29 % of control and 43 % of control
T/C (dose: 800.0 mg/kg/injection, schedule: Q07DX002 (ip), vehicle: saline): 35 % of control
T/C (dose: 1200.0 mg/kg/injection, schedule: Q07DX002 (ip), vehicle: saline): 44 % of control and 55 % of control

C=C(C)[C@H]1CN[C@H](C(=O)O)[C@H]1CC(=O)O
T/C (dose: 0.62 mg/kg/injection, schedule: Q07DX002 (ip), vehicle: saline): 58 % of control
T/C (dose: 1.25 mg/kg/injection, schedule: Q07DX002 (ip), vehicle: saline): 80 % of control
T/C (dose: 2.5 mg/kg/injection, schedule: Q07DX002 (ip), vehicle: saline): 92 % of control
T/C (dose: 5.0 mg/kg/injection, schedule: Q07DX002 (ip), vehicle: saline): 95 % of control
T/C [11]: 90 % of control
T/C (dose: 10.0 mg/kg/injection, schedule: Q07DX002 (ip), vehicle: saline): 79 % of control
T/C [12]: 73 % of control
T/C (dose: 20.0 mg/kg/injection, schedule: Q07DX002 (ip), vehicle: saline): 90 % of control
T/C (dose: 25.0 mg/kg/injection, schedule: Q07DX002 (ip), vehicle: saline): 90 % of control

CC(C)NCC(O)COc1ccc(O)c(O)c1 (stereo not given)
T/C [10]: 121 % of control
T/C (dose: 200.0 mg/kg/injection, schedule: Q07DX002 (ip), vehicle: saline): 93 % of control

NNC(=S)N/N=C/c1ccccn1
T/C (dose: 3.12 mg/kg/injection, schedule: Q07DX002 (ip), vehicle: suspension in saline): 84 % of control
T/C [13]: 49 % of control
T/C (dose: 12.5 mg/kg/injection, schedule: Q07DX002 (ip), vehicle: suspension in saline): 77 % of control
T/C (dose: 25.0 mg/kg/injection, schedule: Q07DX002 (ip), vehicle: suspension in saline): 75 % of control
T/C (dose: 50.0 mg/kg/injection, schedule: Q07DX002 (ip), vehicle: suspension in saline): 64 % of control

ClCC[Se](Cl)(Cl)c1ccccc1
T/C (dose: 1.56 mg/kg/injection, schedule: Q07DX002 (ip), vehicle: saline): 84 % of control
T/C (dose: 1.56 mg/kg/injection, schedule: Q07DX002 (ip), vehicle: suspension in saline): 83 % of control
T/C (dose: 3.12 mg/kg/injection, schedule: Q07DX002 (ip), vehicle: saline): 96 % of control
T/C [11]: 105 % of control
T/C [13]: 88 % of control
T/C [12]: 90 % of control

O=c1oc2c(O)c(O)cc3c(=O)oc4c(O)c(O)cc1c4c23
T/C [14]: 195 % of control
T/C [5]: 200 % of control
T/C [6]: 181 % of control
T/C [9]: 155 % of control

CC[C@H](CC[C@@H](C)C1CC[C@H]2[C@@H]3CC=C4C[C@@H](OP(=O)(N5CC5)N5CC5)CC[C@]4(C)[C@H]3CC[C@]12C)C(C)C (stereo not given in full)
T/C [1]: 95 % of control
T/C [3]: 79 % of control
T/C [4]: 92 % of control

Oc1ccc(SCc2ccc(NCc3ccccc3)cc2)cc1
T/C (dose: 12.5 mg/kg/injection, schedule: Q07DX002 (ip), vehicle: DMSO): 75 % of control
T/C (dose: 25.0 mg/kg/injection, schedule: Q07DX002 (ip), vehicle: DMSO): 82 % of control
T/C (dose: 50.0 mg/kg/injection, schedule: Q07DX002 (ip), vehicle: DMSO): 85 % of control
T/C (dose: 100.0 mg/kg/injection, schedule: Q07DX002 (ip), vehicle: DMSO): 109 % of control
T/C (dose: 200.0 mg/kg/injection, schedule: Q07DX002 (ip), vehicle: DMSO): 82 % of control

CN1CCN(Cc2nc3cccc4c3c([n+]2[O-])-c2ccccc2-4)CC1
T/C (dose: 3.12 mg/kg/injection, schedule: Q07DX002 (ip), vehicle: saline with Tween-80): 72 % of control
T/C (dose: 6.25 mg/kg/injection, schedule: Q07DX002 (ip), vehicle: saline with Tween-80): 58 % of control
T/C [15]: 81 % of control and 98 % of control and 106 % of control
T/C [3]: 65 % of control and 75 % of control
T/C [4]: 79 % of control

C1CN2CCC1CC2
T/C (dose: 3.12 mg/kg/injection, schedule: Q07DX003 (ip), vehicle: saline): 101 % of control
T/C (dose: 6.25 mg/kg/injection, schedule: Q07DX003 (ip), vehicle: saline): 78 % of control

CN(C)c1nc(N(C)C)nc(N(C)C)n1
T/C (dose: 12.5 mg/kg/injection, schedule: Q07DX003 (ip), vehicle: saline with Tween-80): 68 % of control
T/C (dose: 25.0 mg/kg/injection, schedule: Q07DX003 (ip), vehicle: saline with Tween-80): 91 % of control
T/C (dose: 50.0 mg/kg/injection, schedule: Q07DX003 (ip), vehicle: saline with Tween-80): 112 % of control
T/C (dose: 100.0 mg/kg/injection, schedule: Q07DX003 (ip), vehicle: saline with Tween-80): 66 % of control
T/C (dose: 200.0 mg/kg/injection, schedule: Q07DX003 (ip), vehicle: saline with Tween-80): 65 % of control

CCC(C)C(=O)O[C@H]1C(=O)O[C@@H]2C[C@H]3C(C)=CC(=O)[C@@H](O)[C@]3(C)[C@H]3[C@@H](O)[C@H](O)[C@@]4(C)OC[C@]32[C@@H]14 (stereo not given in full)
T/C (dose: 1.25 mg/kg/injection, schedule: Q07DX002 (ip), vehicle: saline + alcohol): 45 % of control
T/C (dose: 5.0 mg/kg/injection, schedule: Q07DX002 (ip), vehicle: saline + alcohol): 27 % of control and 50 % of control

c1ccc2sc(SSN3CC4CCC(CC4)C3)nc2c1
T/C [15]: 110 % of control and 85 % of control
T/C (dose: 25.0 mg/kg/injection, schedule: Q07DX002 (ip), vehicle: saline with Tween-80): 82 % of control and 93 % of control
T/C [2]: 63 % of control and 64 % of control
T/C [3]: 113 % of control and 115 % of control

CCNC(=O)[B-][N+](C)(C)C
T/C [7]: 116 % of control
T/C [8]: 67 % of control
T/C [9]: 113 % of control and 96 % of control

CCCCNC(C)C1(O)Cc2c(O)c3c(c(O)c2C(OC2CC(N)C(O)C(C)O2)C1)C(=O)c1c(OC)cccc1C3=O (stereo not given)
T/C (dose: 40.0 mg/kg/injection, schedule: Q07DX002 (ip), vehicle: saline): 95 % of control
T/C (dose: 80.0 mg/kg/injection, schedule: Q07DX002 (ip), vehicle: saline): 101 % of control
T/C (dose: 160.0 mg/kg/injection, schedule: Q07DX002 (ip), vehicle: saline): 116 % of control
T/C (dose: 320.0 mg/kg/injection, schedule: Q07DX002 (ip), vehicle: saline): 47 % of control

CC(=O)OC1=NC(C)c2c1cc(OC(C)=O)[nH]c2=O (stereo not given)
T/C (dose: 6.25 mg/kg/injection, schedule: Q07DX002 (ip), vehicle: Klucel (hydroxypropylcellulose) (HPC)): 124 % of control
T/C [14]: 70 % of control and 85 % of control
T/C [8]: 100 % of control
